{
  "source": "patent US20240043392A1",
  "about": "“NOVEL BIPHENYL DERIVATIVE AND PREPARATION METHOD AND PHARMACEUTICAL USE THEREOF” (XI'AN XINTON PHARMACEUTCAL RESEARCH CO., LTD., priority 2021, published 2024)",
  "key": {"hPD-1/hPD-L1 interaction": {"target": "hPD-1/hPD-L1 interaction (Homo sapiens (Human), UniProt Q9NZQ7)", "sequence (Q9NZQ7 19-238)": "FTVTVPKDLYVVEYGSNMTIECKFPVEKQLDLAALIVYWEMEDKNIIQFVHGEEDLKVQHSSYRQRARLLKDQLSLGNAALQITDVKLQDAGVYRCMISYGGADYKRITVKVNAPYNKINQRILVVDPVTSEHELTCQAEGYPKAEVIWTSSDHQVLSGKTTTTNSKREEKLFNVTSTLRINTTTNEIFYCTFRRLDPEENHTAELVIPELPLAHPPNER", "settings": "read-out: PD-1/PD-L1 IC50"}, "C57BL/6 mice [1]": {"tested_on": "C57BL/6 mice", "test": "Acute toxicity test, intraperitoneal injection", "settings": "125 mg/kg"}, "[2]": {"tested_on": "MC38-hPDL1 colon cancer cells", "parameters": "species or system mice", "settings": "mouse, in vivo"}, "C57BL/6 mice [3]": {"tested_on": "C57BL/6 mice", "settings": "mouse, in vivo"}, "Fc-hPD-L1 protein": {"target": "Fc-hPD-L1 protein (Homo sapiens (Human), UniProt Q9NZQ7)", "sequence (Q9NZQ7 19-238 limits assumed)": "as the sequence (Q9NZQ7 19-238) above", "type": "binding"}},
  "note": "Like-named read-outs stand apart in the source and are kept apart here.",
  "data": [
    {"molecule": "1-(4-((3′-(3-(4-((2-carbamoylpyrrolidin-1-)methyl)-1H-1,2,3-triazol-1-) Propoxy)-2,2′-dimethyl-[1,1′-biphenyl]-3-methoxy)-5-chloro-2-((5-cyanopyridine-3-)methox y)benzyl) pyrrolidine-2-carboxamide [II-4]", "values": [
      {"measurement": "IC50", "setting": "hPD-1/hPD-L1 interaction", "result": "10 to 100", "unit": "nM"}
    ]},
    {"molecule": "5-((4-chloro-2-(((2-hydroxyethyl)amino)methyl)-5-((3′-(3-(4-(((2-hydroxyethyl)amino)methy 1 Base)-1H-1,2,3-triazol-1-)propoxy)-2,2′-dimethyl-[1,1′-biphenyl]-3-)methoxy) phenoxy) methyl)nicotinonitrile [II-2]", "values": [
      {"measurement": "IC50", "setting": "hPD-1/hPD-L1 interaction", "result": "10 to 100", "unit": "nM"}
    ]},
    {"molecule": "COc1nc(OCc2cccc(-c3ccccc3)c2C)ccc1CNCCNC(C)=O", "note": "[BMS-202]", "values": [
      {"measurement": "body weight", "setting": "C57BL/6 mice [1]", "result": "decreased significantly"},
      {"measurement": "state of mice (clinical signs)", "setting": "C57BL/6 mice [1]", "result": "obvious signs of convulsions and tremors"}
    ]},
    {"molecule": "Cc1c(COc2cc(OCc3cncc(C#N)c3)c(CN[C@@H](CO)C(=O)O)cc2Cl)cccc1-c1cccc(OCCCn2cc(CNC(CO)C(=O)O)nn2)c1C", "note": "(stereo partly drawn) [II-1, (4-((3′-(3-(4-(((1-carboxy-2-hydroxyethyl)amino)methyl)-1H-1,2,3-triazole-1-)propaneoxy)-2,2′-dimethyl-[1,1′-biphenyl]-3-)methoxy)-5-chloro-2-((5-cyanopyridin-3-)methoxy)benzyl)serine]", "values": [
      {"measurement": "inhibitory effect on tumor growth", "setting": "[2]", "result": "weak inhibitory effect on tumor growth"},
      {"measurement": "proliferation of CD3+CD4+T cell", "setting": "[2]", "result": "can promote the proliferation"},
      {"measurement": "proliferation of CD3+CD8+T cell", "setting": "[2]", "result": "can promote the proliferation"},
      {"measurement": "relative tumor inhibition rate", "setting": "[2]", "result": 45.8, "unit": "%"},
      {"measurement": "tumor weight", "setting": "[2]", "result": "excellent anti-tumor effect"},
      {"measurement": "body weight", "setting": "C57BL/6 mice [3]", "result": "nor did their body weight decrease"},
      {"measurement": "Kd", "setting": "Fc-hPD-L1 protein", "result": "0.1 to 100", "unit": "nM"},
      {"measurement": "IC50", "setting": "hPD-1/hPD-L1 interaction", "result": "0.1 to 10", "unit": "nM"}
    ]},
    {"molecule": "COc1cc(OCc2cccc(-c3cccc(OCCCn4cc(CN5CCCC5C(N)=O)nn4)c3C)c2C)c(Cl)cc1CN1CCCC1C(N)=O", "note": "(stereo not drawn) [II-8, 1-(4-((3′-(3-(4-((2-carbamoylpyrrolidin-1-)methyl)-1H-1,2,3-triazol-1-) Propoxy)-2,2′-dimethyl-[1,1′-biphenyl]-3-)methoxy)-5-chloro-2-methoxybenzyl)pyrrolidine-2-formamide]", "values": [
      {"measurement": "Kd", "setting": "Fc-hPD-L1 protein", "result": "0.1 to 100", "unit": "nM"},
      {"measurement": "IC50", "setting": "hPD-1/hPD-L1 interaction", "result": "10 to 100", "unit": "nM"}
    ]},
    {"molecule": "COc1cc(OCc2cccc(-c3cccc(OCCCn4cc(CNCCO)nn4)c3C)c2C)c(Cl)cc1CNCCO", "note": "[II-9]", "values": [
      {"measurement": "Kd", "setting": "Fc-hPD-L1 protein", "result": "0.1 to 100", "unit": "nM"},
      {"measurement": "IC50", "setting": "hPD-1/hPD-L1 interaction", "result": "0.1 to 10", "unit": "nM"}
    ]},
    {"molecule": "COc1cc(OCc2cccc(-c3cccc(OCCCn4cc(CNCCNC(C)=O)nn4)c3C)c2C)c(Cl)cc1CNCCNC(C)=O", "note": "[II-10, N-(2-((4-((3′-(3-(4-(((2-acetylaminoethyl)amino)methyl)-1H-1,2,3-triazole-1-)propoxy)-2,2′-dimethyl-[1,1′-biphenyl]-3-)methoxy)-5-chloro-2-methoxybenzyl)amino)ethyl)acetamide]", "values": [
      {"measurement": "IC50", "setting": "hPD-1/hPD-L1 interaction", "result": "10 to 100", "unit": "nM"}
    ]},
    {"molecule": "COc1cc(OCc2cccc(-c3cccc(OCCCn4cc(CN5CC[C@@H](O)C5)nn4)c3C)c2C)c(Cl)cc1CN1CC[C@@H](O)C1", "note": "[II-11, (R)-1-((1-(3-((3′-((2-chloro-4-(((R)-3-hydroxypyrrolidin-1-yl)methyl)-5-methoxyphenoxy)methyl)-2,2′-dimethyl-[1,1′-biphenyl]-3-)oxy)propyl)-1H-1,2,3-triazol-4-)methyl)py rrolidin-3-ol]", "values": [
      {"measurement": "Kd", "setting": "Fc-hPD-L1 protein", "result": "0.1 to 100", "unit": "nM"},
      {"measurement": "IC50", "setting": "hPD-1/hPD-L1 interaction", "result": "10 to 100", "unit": "nM"}
    ]},
    {"molecule": "COc1cc(OCc2cccc(-c3cccc(OCCCn4cc(CNCCC(=O)O)nn4)c3C)c2C)c(Cl)cc1CNCCC(=O)O", "note": "[II-12, 3-((4-((3′-(3-(4-(((2-carboxyethyl)amino)methyl)-1H-1,2,3-triazol-1-)propoxyl)-2,2′-dimethyl-[1,1′-biphenyl]-3-)methoxy)-5-chloro-2-methoxybenzyl)amino)propionic acid]", "values": [
      {"measurement": "Kd", "setting": "Fc-hPD-L1 protein", "result": "0.1 to 100", "unit": "nM"},
      {"measurement": "IC50", "setting": "hPD-1/hPD-L1 interaction", "result": "0.1 to 10", "unit": "nM"}
    ]},
    {"molecule": "COc1cc(OCc2cccc(-c3cccc(OCCCn4cc(CN5CCCCC5C(=O)O)nn4)c3C)c2C)c(Cl)cc1CN1CCCCC1C(=O)O", "note": "(stereo not drawn) [II-13]", "values": [
      {"measurement": "IC50", "setting": "hPD-1/hPD-L1 interaction", "result": "0.1 to 10", "unit": "nM"}
    ]},
    {"molecule": "COc1cc(OCc2cccc(-c3cccc(OCCCn4cc(CNC(C)C(=O)O)nn4)c3C)c2C)c(Cl)cc1CN[C@@H](C)C(=O)O", "note": "(stereo partly drawn) [II-15, (4-((3′-(3-(4-(((1-carboxyethyl)amino)methyl)-1H-1,2,3-triazol-1-yl)propoxy)-2 ,2′-dimethyl-[1,1′-biphenyl]-3-)methoxy)-5-chloro-2-methoxybenzyl)alanine]", "values": [
      {"measurement": "IC50", "setting": "hPD-1/hPD-L1 interaction", "result": "0.1 to 10", "unit": "nM"}
    ]},
    {"molecule": "CCOC(=O)[C@@H](CO)NCc1cn(CCCOc2cccc(-c3cccc(COc4cc(OCc5cncc(C#N)c5)c(CN[C@H](CO)C(=O)OCC)cc4Cl)c3C)c2C)nn1", "note": "[II-18, (5-chloro-2-((5-cyanopyridin-3-)methoxy)-4-((3′-(3-(4-((((R)-1-ethoxy-3-hydroxy-1-oxopropan-2-)amino)methyl)-1H-1,2,3-triazol-1-)propoxy)-2,2′-dimethyl-[1,1′-biphenyl]-3-)methoxy)benzyl)-D-serine ethyl ester]", "values": [
      {"measurement": "proliferation of CD3+CD4+T cell", "setting": "[2]", "result": "can promote the proliferation"},
      {"measurement": "proliferation of CD3+CD8+T cell", "setting": "[2]", "result": "can promote the proliferation"},
      {"measurement": "relative tumor inhibition rate", "setting": "[2]", "result": 49.6, "unit": "%"},
      {"measurement": "tumor weight", "setting": "[2]", "result": "excellent anti-tumor effect"},
      {"measurement": "body weight", "setting": "C57BL/6 mice [3]", "result": "nor did their body weight decrease"},
      {"measurement": "Kd", "setting": "Fc-hPD-L1 protein", "result": "100 to 1000", "unit": "nM"},
      {"measurement": "IC50", "setting": "hPD-1/hPD-L1 interaction", "result": "10 to 100", "unit": "nM"}
    ]},
    {"molecule": "COC(=O)[C@@H](CO)NCc1cn(CCCOc2cccc(-c3cccc(COc4cc(OCc5cncc(C#N)c5)c(CN[C@H](CO)C(=O)OC)cc4Cl)c3C)c2C)nn1", "note": "[II-19, (5-chloro-2-((5-cyanopyridin-3-)methoxy)-4-((3′-(3-(4-((((R)-1-methoxy-3-hydroxy-1-oxopropan-2-)amino)methyl)-1H-1,2,3-triazol-1-)propoxy)-2,2′-dimethyl-[1,1′-biphenyl]-3-)methoxy)benzyl)-D-serine methyl ester]", "values": [
      {"measurement": "Kd", "setting": "Fc-hPD-L1 protein", "result": "100 to 1000", "unit": "nM"},
      {"measurement": "IC50", "setting": "hPD-1/hPD-L1 interaction", "result": "10 to 100", "unit": "nM"}
    ]},
    {"molecule": "CCOC(=O)CNCc1cn(CCCOc2cccc(-c3cccc(COc4cc(OCc5cncc(C#N)c5)c(CNCC(=O)OCC)cc4Cl)c3C)c2C)nn1", "note": "[II-20, (5-chloro-2-((5-cyanopyridin-3-yl)methoxy)-4-((3′-(3-(4-(((2-ethoxy-2-oxoethyl)amino)methyl)-1H-1,2,3-triazol-1-)propoxy)-2,2′-dimethyl-[1,1′-biphenyl]-3-)methoxy)benzyl)glycine ethyl ester]", "values": [
      {"measurement": "Kd", "setting": "Fc-hPD-L1 protein", "result": "100 to 1000", "unit": "nM"},
      {"measurement": "IC50", "setting": "hPD-1/hPD-L1 interaction", "result": "10 to 100", "unit": "nM"}
    ]},
    {"molecule": "CCOC(=O)[C@@H](CO)NCc1cn(CCCOc2cccc(-c3cccc(COc4cc(OC)c(CN[C@H](CO)C(=O)OCC)cc4Cl)c3C)c2C)nn1", "note": "[II-21, ((1-(3-((3′-((2-chloro-4-((((R)1-ethoxy-3-hydroxy-1-oxopropan-2-)amino)methyl)-5-methoxyphenoxy)methyl)-2,2′-dimethyl-[1,1′-biphenyl]-3-)oxy)propyl)-1H-1,2,3-triazol-4-)methyl)-D-serine ethyl ester]", "values": [
      {"measurement": "Kd", "setting": "Fc-hPD-L1 protein", "result": "100 to 1000", "unit": "nM"},
      {"measurement": "IC50", "setting": "hPD-1/hPD-L1 interaction", "result": "10 to 100", "unit": "nM"}
    ]},
    {"molecule": "(4-((3′-(2-(4-(((1-carboxy-2-hydroxyethyl)amino)methyl)-1H-1,2,3-triazol-1-)ethyl oxy)-2,2′-dimethyl-[1,1′-biphenyl]-3-)methoxy)-5-chloro-2-((5-cyanopyridin-3-)methoxy)ben zyl)serine [II-6]", "values": [
      {"measurement": "IC50", "setting": "hPD-1/hPD-L1 interaction", "result": "100 to 1000", "unit": "nM"}
    ]},
    {"molecule": "(4-((3′-(3-(4-(((1-carboxy-2-hydroxyethyl)amino)methyl)-1H-1,2,3-triazol-1-)propoxy)-2,2′-d imethyl-[1,1′-biphenyl]-3-yl)methoxy)-5-chloro-2-methoxybenzyl)serine [II-7]", "values": [
      {"measurement": "Kd", "setting": "Fc-hPD-L1 protein", "result": "0.1 to 100", "unit": "nM"},
      {"measurement": "IC50", "setting": "hPD-1/hPD-L1 interaction", "result": "0.1 to 10", "unit": "nM"}
    ]},
    {"molecule": "(4-((3′-(3-(4-(((1-carboxy-2-hydroxyethyl)amino)methyl)-1H-1,2,3-triazol-1-)propoxyl)-2,2′-dichloro-[1,1′-biphenyl]-3-)methoxy)-5-chloro-2-((5-cyanopyridin-3-)methoxy)benzyl)serine [II-16]", "values": [
      {"measurement": "IC50", "setting": "hPD-1/hPD-L1 interaction", "result": "10 to 100", "unit": "nM"}
    ]},
    {"molecule": "(4-((3′-(3-(4-(((carboxymethyl)amino)methyl)-1H-1,2,3-triazol-1-)propoxy)-2,2′-dimethyl-[1,1′-biphenyl]-3-)methoxy)-5-chloro-2-((5-cyanopyridin-3-)methoxy)benzyl) glycine [II-5]", "values": [
      {"measurement": "Kd", "setting": "Fc-hPD-L1 protein", "result": "0.1 to 100", "unit": "nM"},
      {"measurement": "IC50", "setting": "hPD-1/hPD-L1 interaction", "result": "0.1 to 10", "unit": "nM"}
    ]},
    {"molecule": "(4-((3′-(3-(4-(((carboxymethyl)amino)methyl)-1H-1,2,3-triazol-1-)propoxy)-2, 2′-dichloro-[1,1′-biphenyl]-3-)methoxy)-5-chloro-2-((5-cyanopyridin-3-)methoxy)benzyl) glycine [II-17]", "values": [
      {"measurement": "IC50", "setting": "hPD-1/hPD-L1 interaction", "result": "100 to 1000", "unit": "nM"}
    ]},
    {"molecule": "N-(2-((4-((3′-(3-(4-(((2-acetylaminoethyl)amino) methyl)-1H-1,2,3-triazole-1-)propoxy)-2,2′-dimethyl-[1,1′-biphenyl]-3-)methoxy)-5-chloro-2-((5-cyanopyridine-3-)methoxy) benzyl)amino)ethyl)acetamide [II-3]", "values": [
      {"measurement": "Kd", "setting": "Fc-hPD-L1 protein", "result": "0.1 to 100", "unit": "nM"},
      {"measurement": "IC50", "setting": "hPD-1/hPD-L1 interaction", "result": "10 to 100", "unit": "nM"}
    ]}
  ]
}
